Test results reported in PubChem BioAssay (NCI).
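Values below derive from 48-hour exposures of cells grown in 96-well plates, with endpoints linearly interpolated between the two concentrations bracketing the appropriate inhibition level. GI50 = concentration required for 50% inhibition of growth. TGI is the concentration that stops growth completely.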

Legend:
Test in all cases: DTP human tumour cell line panel, 48 h
NCI-H226 lung = system: NCI-H226 lung
MCF7 breast = system: MCF7 breast
SK-MEL-28 melanoma = system: SK-MEL-28 melanoma
BT-549 breast = system: BT-549 breast
T-47D breast = system: T-47D breast
HS 578T breast = system: HS 578T breast
MDA-MB-231 breast = system: MDA-MB-231 breast
SNB-75 CNS = system: SNB-75 CNS
LOX IMVI melanoma = system: LOX IMVI melanoma
SF-295 CNS = system: SF-295 CNS
SN12C renal = system: SN12C renal
OVCAR-3 ovarian = system: OVCAR-3 ovarian
NCI/ADR-RES ovarian = system: NCI/ADR-RES ovarian
HT29 colon = system: HT29 colon
HL-60(TB) leukemia = system: HL-60(TB) leukemia
HCT-116 colon = system: HCT-116 colon
CCRF-CEM leukemia = system: CCRF-CEM leukemia
K-562 leukemia = system: K-562 leukemia
TK-10 renal = system: TK-10 renal
A549 NSCLC = system: A549 NSCLC
RXF 393 renal = system: RXF 393 renal
A498 renal = system: A498 renal
KM12 colon = system: KM12 colon
SW-620 colon = system: SW-620 colon
SK-MEL-2 melanoma = system: SK-MEL-2 melanoma
SK-OV-3 ovarian = system: SK-OV-3 ovarian
UACC-62 melanoma = system: UACC-62 melanoma
HOP-62 NSCLC = system: HOP-62 NSCLC
DU-145 prostate = system: DU-145 prostate
COLO 205 colon = system: COLO 205 colon
SK-MEL-5 melanoma = system: SK-MEL-5 melanoma
IGROV1 ovarian = system: IGROV1 ovarian
UO-31 renal = system: UO-31 renal
UACC-257 melanoma = system: UACC-257 melanoma
SR leukemia = system: SR leukemia
SF-268 CNS = system: SF-268 CNS
CAKI-1 renal = system: CAKI-1 renal
NCI-H460 lung = system: NCI-H460 lung
786-0 renal = system: 786-0 renal
SF-539 CNS = system: SF-539 CNS
RPMI-8226 leukemia = system: RPMI-8226 leukemia
OVCAR-5 ovarian = system: OVCAR-5 ovarian
M14 melanoma = system: M14 melanoma
ACHN renal = system: ACHN renal
OVCAR-8 ovarian = system: OVCAR-8 ovarian
NCI-H522 lung = system: NCI-H522 lung
EKVX NSCLC = system: EKVX NSCLC
NCI-H23 lung = system: NCI-H23 lung
HCT-15 colon = system: HCT-15 colon
MOLT-4 leukemia = system: MOLT-4 leukemia
SNB-19 CNS = system: SNB-19 CNS
U251 CNS = system: U251 CNS
MALME-3M melanoma = system: MALME-3M melanoma
OVCAR-4 ovarian = system: OVCAR-4 ovarian
PC-3 prostate = system: PC-3 prostate
MDA-MB-435 = system: MDA-MB-435
HCC-2998 colon = system: HCC-2998 colon
HOP-92 NSCLC = system: HOP-92 NSCLC

Work on c1ccc(CSc2nc(N3CCOCC3)c3cn[nH]c3n2)cc1 yielded a TGI (NCI-H226 lung) of 73.1 µM, a TGI (MCF7 breast) greater than 100 µM and a TGI (SK-MEL-28 melanoma) of 43.4 µM. It also gave a TGI (BT-549 breast) of 40.3 µM, a TGI (T-47D breast) of 68.5 µM and a TGI (HS 578T breast) of 39.3 µM. The TGI (MDA-MB-231 breast) was 39.4 µM, the TGI (SNB-75 CNS) was greater than 100 µM and the TGI (LOX IMVI melanoma) was 44.1 µM. It also gave a TGI (SF-295 CNS) of 78 µM, a TGI (SN12C renal) of 37.7 µM and a TGI (OVCAR-3 ovarian) greater than 100 µM. For the same molecule, the TGI (NCI/ADR-RES ovarian) was 55.6 µM, the TGI (HT29 colon) was greater than 100 µM and the TGI (HL-60(TB) leukemia) was greater than 100 µM. For the same molecule, the TGI (HCT-116 colon) was greater than 100 µM, the TGI (CCRF-CEM leukemia) was 36 µM and the TGI (K-562 leukemia) was greater than 100 µM. The TGI (TK-10 renal) was 51.6 µM, the TGI (A549 NSCLC) was greater than 100 µM and the TGI (RXF 393 renal) was 32.9 µM. It also gave a TGI (A498 renal) of 26.1 µM, a TGI (KM12 colon) of 38.5 µM and a TGI (SW-620 colon) of 64.8 µM. The TGI (SK-MEL-2 melanoma) was 34 µM, the TGI (SK-OV-3 ovarian) was greater than 100 µM and the TGI (UACC-62 melanoma) was 30.3 µM. For the same molecule, the TGI (HOP-62 NSCLC) was greater than 100 µM, the TGI (DU-145 prostate) was greater than 100 µM and the TGI (COLO 205 colon) was 30.4 µM. It also gave a TGI (SK-MEL-5 melanoma) of 30.9 µM, a TGI (IGROV1 ovarian) of 31.7 µM and a TGI (UO-31 renal) of 38.4 µM. It also gave a TGI (UACC-257 melanoma) of 29.9 µM, a TGI (SR leukemia) of 63.6 µM and a TGI (SF-268 CNS) of 58.8 µM. For the same molecule, the TGI (CAKI-1 renal) was 57.5 µM, the TGI (NCI-H460 lung) was 59 µM and the TGI (786-0 renal) was greater than 100 µM. It also gave a TGI (SF-539 CNS) of 56.4 µM, a TGI (RPMI-8226 leukemia) of 35.2 µM and a TGI (OVCAR-5 ovarian) greater than 100 µM. It also gave a TGI (M14 melanoma) of 49 µM, a TGI (ACHN renal) of 90.9 µM and a TGI (OVCAR-8 ovarian) of 89.1 µM. It also gave a TGI (NCI-H522 lung) of 33.1 µM, a TGI (EKVX NSCLC) of 48 µM and a TGI (NCI-H23 lung) greater than 100 µM. It also gave a TGI (HCT-15 colon) greater than 100 µM, a TGI (MOLT-4 leukemia) greater than 100 µM and a TGI (SNB-19 CNS) of 87.4 µM. The TGI (U251 CNS) was 63.2 µM, the TGI (MALME-3M melanoma) was 31.8 µM and the TGI (OVCAR-4 ovarian) was greater than 100 µM. It also gave a TGI (PC-3 prostate) of 38.2 µM, a TGI (MDA-MB-435) of 40 µM and a TGI (HCC-2998 colon) of 69.2 µM.
Fc1ccc2[nH]c3c(NCCCN4CCOCC4)ncnc3c2c1 showed a GI50 (NCI-H226 lung) of 63.3 µM, a TGI (NCI-H226 lung) greater than 100 µM and a GI50 (MCF7 breast) of 41.5 µM. For the same molecule, the TGI (MCF7 breast) was greater than 100 µM, the GI50 (SK-MEL-28 melanoma) was 70.4 µM and the TGI (SK-MEL-28 melanoma) was greater than 100 µM. The GI50 (BT-549 breast) was 22.5 µM, the TGI (BT-549 breast) was 99.4 µM and the GI50 (T-47D breast) was 35.7 µM. The TGI (T-47D breast) was greater than 100 µM, the GI50 (HS 578T breast) was 41.9 µM and the TGI (HS 578T breast) was greater than 100 µM. It also gave a GI50 (MDA-MB-231 breast) of 23.6 µM, a TGI (MDA-MB-231 breast) greater than 100 µM and a GI50 (SNB-75 CNS) of 37.5 µM. The TGI (SNB-75 CNS) was greater than 100 µM, the GI50 (LOX IMVI melanoma) was 30.7 µM and the TGI (LOX IMVI melanoma) was greater than 100 µM. It also gave a GI50 (SF-295 CNS) of 61.2 µM, a TGI (SF-295 CNS) greater than 100 µM and a GI50 (SN12C renal) of 77.8 µM. The TGI (SN12C renal) was greater than 100 µM, the GI50 (OVCAR-3 ovarian) was greater than 100 µM and the TGI (OVCAR-3 ovarian) was greater than 100 µM. It also gave a GI50 (NCI/ADR-RES ovarian) greater than 100 µM, a TGI (NCI/ADR-RES ovarian) greater than 100 µM and a GI50 (HT29 colon) of 29 µM. It also gave a TGI (HT29 colon) greater than 100 µM, a GI50 (HL-60(TB) leukemia) of 51.9 µM and a TGI (HL-60(TB) leukemia) greater than 100 µM. It also gave a GI50 (HCT-116 colon) of 33.7 µM, a TGI (HCT-116 colon) greater than 100 µM and a GI50 (K-562 leukemia) of 26.2 µM. It also gave a TGI (K-562 leukemia) greater than 100 µM, a GI50 (TK-10 renal) of 66.4 µM and a TGI (TK-10 renal) greater than 100 µM. It also gave a GI50 (RXF 393 renal) of 34.5 µM, a TGI (RXF 393 renal) greater than 100 µM and a GI50 (A498 renal) of 28.1 µM. For the same molecule, the TGI (A498 renal) was greater than 100 µM, the GI50 (KM12 colon) was 48.8 µM and the TGI (KM12 colon) was greater than 100 µM. The GI50 (SW-620 colon) was 40.8 µM, the TGI (SW-620 colon) was greater than 100 µM and the GI50 (SK-MEL-2 melanoma) was 52 µM. The TGI (SK-MEL-2 melanoma) was greater than 100 µM, the GI50 (SK-OV-3 ovarian) was greater than 100 µM and the TGI (SK-OV-3 ovarian) was greater than 100 µM. For the same molecule, the GI50 (UACC-62 melanoma) was 17.5 µM, the TGI (UACC-62 melanoma) was 40.4 µM and the GI50 (HOP-62 NSCLC) was 42.8 µM. The TGI (HOP-62 NSCLC) was greater than 100 µM, the GI50 (HOP-92 NSCLC) was 13.5 µM and the TGI (HOP-92 NSCLC) was 84.1 µM. It also gave a GI50 (DU-145 prostate) of 88 µM, a TGI (DU-145 prostate) greater than 100 µM and a GI50 (COLO 205 colon) of 20.7 µM. It also gave a TGI (COLO 205 colon) of 42.4 µM, a GI50 (SK-MEL-5 melanoma) of 21.3 µM and a TGI (SK-MEL-5 melanoma) of 73.1 µM. For the same molecule, the GI50 (IGROV1 ovarian) was 49.1 µM, the TGI (IGROV1 ovarian) was greater than 100 µM and the GI50 (UO-31 renal) was 33 µM. For the same molecule, the TGI (UO-31 renal) was greater than 100 µM, the GI50 (SR leukemia) was 28.8 µM and the TGI (SR leukemia) was greater than 100 µM. For the same molecule, the GI50 (SF-268 CNS) was 88.2 µM, the TGI (SF-268 CNS) was greater than 100 µM and the GI50 (CAKI-1 renal) was 34.2 µM. The TGI (CAKI-1 renal) was greater than 100 µM, the GI50 (NCI-H460 lung) was 38.5 µM and the TGI (NCI-H460 lung) was greater than 100 µM. The GI50 (786-0 renal) was greater than 100 µM, the TGI (786-0 renal) was greater than 100 µM and the GI50 (SF-539 CNS) was 21.3 µM. For the same molecule, the TGI (SF-539 CNS) was 62.7 µM, the GI50 (RPMI-8226 leukemia) was 31.4 µM and the TGI (RPMI-8226 leukemia) was greater than 100 µM. For the same molecule, the GI50 (OVCAR-5 ovarian) was 50.5 µM, the TGI (OVCAR-5 ovarian) was greater than 100 µM and the GI50 (M14 melanoma) was 36 µM. For the same molecule, the TGI (M14 melanoma) was greater than 100 µM, the GI50 (ACHN renal) was 47.5 µM and the TGI (ACHN renal) was greater than 100 µM. For the same molecule, the GI50 (OVCAR-8 ovarian) was 66.8 µM, the TGI (OVCAR-8 ovarian) was greater than 100 µM and the GI50 (NCI-H23 lung) was 51.4 µM. The TGI (NCI-H23 lung) was greater than 100 µM, the GI50 (HCT-15 colon) was 32.1 µM and the TGI (HCT-15 colon) was greater than 100 µM. The GI50 (MOLT-4 leukemia) was 50.7 µM, the TGI (MOLT-4 leukemia) was greater than 100 µM and the GI50 (SNB-19 CNS) was greater than 100 µM. For the same molecule, the TGI (SNB-19 CNS) was greater than 100 µM, the GI50 (U251 CNS) was 48.8 µM and the TGI (U251 CNS) was greater than 100 µM. For the same molecule, the GI50 (MALME-3M melanoma) was 27.4 µM, the TGI (MALME-3M melanoma) was 89.1 µM and the GI50 (OVCAR-4 ovarian) was 65.8 µM. The TGI (OVCAR-4 ovarian) was greater than 100 µM, the GI50 (PC-3 prostate) was 65.7 µM and the TGI (PC-3 prostate) was greater than 100 µM. The GI50 (MDA-MB-435) was 51 µM, the TGI (MDA-MB-435) was greater than 100 µM and the GI50 (HCC-2998 colon) was 61.4 µM. It also gave a TGI (HCC-2998 colon) greater than 100 µM.
